# Measurements: patent US20160067211A1, “PHARMACEUTICAL COMPOSITION” (Eberhard Karls Universitaet Tuebingen Medizinische Fakultaet, priority 2013, published 2016)
# Assays:
# [1] = tested on: histon protein H3 acetylation in BLM melanoma cells; experiment: Western blot of acetylated histon H3, BLM; type: cell-based, human; conditions: 100 μM, 24 hours, vs. DMSO control
# Description: FIG. 4: 6-PN and 8-PN induce a hyper acetylation in SK-MEL-28 melanoma cells. Western blot analysis of acetylated histon complex H3 in cellular lysates of BLM and SK-MEL-28 cells treated with 100 μM 6-PN or 8-PN for 1, 2, 4, 12 and 24 h, or with 100 μM SAHA (as reference HDACi) for 24 h. Equal protein loading was verified by vinculin staining (lower rows). At 24 hours (BLM) and 2 hours (SK-MEL-28) after the PN treatment a prominent up-regulation of ac-H3 is detectable. The protein expression levels were estimated performing a densitometric analysis.
# The following antibodies were used: Anti-Vinculin and Anti-Actin (1:5000, Sigma-Aldrich), Anti-Acetyl-Histon H3 (1:5000, Millipore, Billerica, USA), Anti-Caspase-3 (1:1000), Anti-AKT, Anti-pAKT, Anti-ERK, Anti-pERK, […], Anti-p70S6 Kinase, and Anti-pS6 protein (1:1000), all from Cell Signaling, Frankfurt, Germany), Anti-LC3 (1:5000, Sigma-Aldrich).
# An incubation of cells with HDACi induces generally a hyperacetylation of histon proteins. Therefore, the acetylation status of the histon protein H3 after treatment with 6-PN or 8-PN was investigated. Corresponding to the HDAC screening results, a direct effect was monitored. […] SAHA was used as control HDACi (at 100 μM, 24 hours treatment).
# [2] = tested on: MCF-7 breast cancer cells; experiment: MUH proliferation assay, MCF-7; type: cell-based; conditions: MCF-7, rising concentrations 0.1 μM to 100 μM, 48 hours
# Description: FIG. 6: 6-PN and 8-PN inhibit the growth of MCF-7 and HT-29. (A, B) MUH proliferation assay of HT-29 colon cancer cells and MCF-7 breast cancel cells treated with increasing concentrations of 6-PN and 8-PN (0.1 μM to 100 μM) for 48 hours. Shown are the mean±S.A.; the experiments were performed in quadruplicates.
# The cells were seeded in triplicates in 96-well plates at a density of 2,500 cells per well in 50 μl medium (5×10^4 cells per milliliter). After 24 hours, the medium was replaced by medium containing 6-PN, 8-PN (dissolved in DMSO), TSA (dissolved in EtOH) or SAHA (dissolved in DMSO) at the concentrations to be tested with or without the addition of the necrosis inhibitor IM-54 at 5 μM (Calbiochem, Darmstadt, Germany). Cells treated with culture medium without or with DMSO served as controls. The assay was started following an incubation of 24 hours. The medium was discarded, each well was washed two times with PBS (without Ca^++ and Mg^++) and 100 μl of a solution containing […] of 4-methyl umbellipheryl heptanoate per ml PBS was added. Plates were incubated at 37° C. for 1 hour and measured in a Fluoroskan II (Lab Systems, Helsinki, Finland) with a […]. The intensity of fluorescence indicates the number of viable cells in the wells. […]
# [3] = tested on: foreskin melanocytes (HEM1); experiment: MUH proliferation assay, melanocytes; type: cell-based; conditions: 6-PN, 8-PN at higher concentrations (0.1 μM to 100 μM tested); TSA, SAHA 100 μM
# Description: FIG. 5: real time cell monitoring of BLM and SK-MEL-28 melanoma cells treated with 6-PN and 8-PN. (A) BML and SK-MEL-28 cells were treated 24 hours after seeding with different concentrations of 6-PN and 8-PN (20 μM, 50 μM and 100 μM) over a 104 hour time period. The cellular impedance was measured over the entire observation time using the xCELLigence™ SP system and is depicted by the cell index (CI). All CI-values were normalized shortly before the treatment started. […] As a positive control, Triton X-100 0.1% was used to induce cell death. Shown are the mean±SD of three independent experiments, each performed in triplicates (B, C). […] Shown are the mean±SD; the experiments were performed in quadruplicates. (D) The MUH proliferation assay was repeated unter the same treatment conditions on primary human fibroblasts (FF868) and melanocytes (HEM1).
# The cells were seeded in triplicates in 96-well plates at a density of 2,500 cells per well in 50 μl medium (5×10^4 cells per milliliter). After 24 hours, the medium was replaced by medium containing 6-PN, 8-PN (dissolved in DMSO), TSA (dissolved in EtOH) or SAHA (dissolved in DMSO) at the concentrations to be tested with or without the addition of the necrosis inhibitor IM-54 at 5 μM (Calbiochem, Darmstadt, Germany). Cells treated with culture medium without or with DMSO served as controls. The assay was started following an incubation of 24 hours. […] Plates were incubated at 37° C. for 1 hour and measured in a Fluoroskan II (Lab Systems, Helsinki, Finland) with a […]. The intensity of fluorescence indicates the number of viable cells in the wells.
# Next it was asked whether the PNs also influence the proliferation of benign cells. To this end, human fibroblasts (FF) and foreskin melanocytes (HEM1) were treated with the same concentrations of 6-PN and 8-PN, and proliferation was assessed using the proliferation assay as described above.
# BLM melanoma cells = experiment: PI/Annexin V staining FACS, BLM; type: cell-based, human; conditions: 100 μM; for annexin V positive (apoptotic) cells: DMSO control 4.1%; for PI positive (nectrotic) cells: DMSO control 9.1%
# Description: (A) Cell cycle FACS analyses of PI stained BLM and SK-MEL-28 melanoma cells. 100 μM of 8-PN-induced a G2 arrest in both cells. (B) FACS analyses of BLM and SK-MEL-28 melanoma cells treated with 100 μM 6-PN or 8-PN and stained for annexin V/PI; staurosporin was used as control for apoptosis induction and DMSO as vehicle control. […] (C) BLM and SK-MEL-28 melanoma cells were treated with 100 μM of PNs; TSA, SAHA and EMSO were used as controls.
# To further analyze the possibility of apoptosis induction, an extensive apoptosis assay was performed on SK-MEL-28 melanoma cells 4 hours after treatment with 100 μM 6-PN or 8-PN (FIG. 9). […] This was verified by FACS cell cycle analyses to screen for a possible increase of the sub-G1 fraction of cells (apoptotic cells) or for the induction of a G2 arrest (inhibition of proliferation). […] To further differentiate between the induction of apoptosis and/or necrosis an PI/Annexin V staining of SK-MEL-28 and BLM cells was performed 4 hours and 24 hours after the treatment with 6-PN or 8-PN; 10 μM staurosporin (6 hours treatment) was used as positive control for the induction of apoptosis; DMSO treatment was used as vehicle control. The cells were then analyzed by FACS.
# [4] = tested on: estrogen receptors of the rat uterus; conditions: cited from earlier work
smiles,measurement,setting,value
"CC(C)=CCc1c(O)cc(O)c2c1OC(c1ccc(O)cc1)CC2=O (centres unmarked) [8-PN, 5,7-Dihydroxy-2-(4-hydroxy-phenyl)-8-(3-methyl-but-2-enyl)-chroman-4-one]",histon complex H3 acetylation,[1],massive increase
same,cell proliferation,[2],severe reduction
same,melanocyte proliferation,[3],markedly decreased
same,annexin V positive (apoptotic) cells,BLM melanoma cells; 4 hours,1.2%
same,PI positive (nectrotic) cells,BLM melanoma cells; 4 hours,27%
same,annexin V positive (apoptotic) cells,BLM melanoma cells; 24 hours,5.9%
same,PI positive (nectrotic) cells,BLM melanoma cells; 24 hours,22.4%
same,binding affinity for estrogen receptors,[4],strong binding affinity
